In ChEMBL document CHEMBL5724914, “Linking interpersonal differences in gut microbiota composition and drug biotransformation activity” (2024):

Tests used:
[1] = human gut metagenome, 24 h, 2 µM
[2] = human gut metagenome, 24 h, 2 µM; remark: listed apart in the source
[3] = human gut metagenome, 24 h, 2 µM; remark: listed apart in the source
[4] = The drug is tested on Z-001 corresponding to mouse gut metagenome with ENA study accession number: PRJEB37062 and ENA sample accession number: ERS12561801 for biotransformation under anaerobic condition. The drug concentrations were measured over 9 timepoints collected between 0 and 24 hours of incubation by liquid-chromatography-coupled mass spectrometry (LC–MS); settings: 2 µM
[5] = The drug is tested on WLS-370 corresponding to human gut metagenome with ENA study accession number: PRJEB37062 and ENA sample accession number: ERS12561793 for biotransformation under anaerobic condition. The drug concentrations were measured over 9 timepoints collected between 0 and 24 hours of incubation by liquid-chromatography-coupled mass spectrometry (LC–MS); settings: 2 µM
[6] = human gut metagenome, 24 h, 2 µM; remark: listed apart in the source
[7] = The drug is tested on Z-002 corresponding to rabbit gut metagenome with ENA study accession number: PRJEB37062 and ENA sample accession number: ERS12561802 for biotransformation under anaerobic condition. The drug concentrations were measured over 9 timepoints collected between 0 and 24 hours of incubation by liquid-chromatography-coupled mass spectrometry (LC–MS); settings: 2 µM
[8] = human gut metagenome, 24 h, 2 µM; remark: listed apart in the source
[9] = human gut metagenome, 24 h, 2 µM; remark: listed apart in the source
[10] = The drug is tested on WLS-082 corresponding to human gut metagenome with ENA study accession number: PRJEB37062 and ENA sample accession number: ERS12561751 for biotransformation under anaerobic condition. The drug concentrations were measured over 9 timepoints collected between 0 and 24 hours of incubation by liquid-chromatography-coupled mass spectrometry (LC–MS); settings: 2 µM
[11] = The drug is tested on WLS-052 corresponding to human gut metagenome with ENA study accession number: PRJEB37062 and ENA sample accession number: ERS12561747 for biotransformation under anaerobic condition. The drug concentrations were measured over 9 timepoints collected between 0 and 24 hours of incubation by liquid-chromatography-coupled mass spectrometry (LC–MS); settings: 2 µM
[12] = human gut metagenome, 24 h, 2 µM; remark: listed apart in the source
[13] = The drug is tested on WLS-240 corresponding to human gut metagenome with ENA study accession number: PRJEB37062 and ENA sample accession number: ERS12561773 for biotransformation under anaerobic condition. The drug concentrations were measured over 9 timepoints collected between 0 and 24 hours of incubation by liquid-chromatography-coupled mass spectrometry (LC–MS); settings: 2 µM
[14] = The drug is tested on Z-004 corresponding to metagenome with ENA study accession number: PRJEB37062 and ENA sample accession number: ERS12561804 for biotransformation under anaerobic condition. The drug concentrations were measured over 9 timepoints collected between 0 and 24 hours of incubation by liquid-chromatography-coupled mass spectrometry (LC–MS); settings: 2 µM
[15] = human gut metagenome, 24 h, 2 µM; remark: listed apart in the source
[16] = The drug is tested on Z-018 corresponding to pig gut metagenome with ENA study accession number: PRJEB37062 and ENA sample accession number: ERS12561817 for biotransformation under anaerobic condition. The drug concentrations were measured over 9 timepoints collected between 0 and 24 hours of incubation by liquid-chromatography-coupled mass spectrometry (LC–MS); settings: 2 µM
[17] = human gut metagenome, 24 h, 2 µM; remark: listed apart in the source
[18] = human gut metagenome, 24 h, 2 µM; remark: listed apart in the source
[19] = The drug is tested on WLS-220 corresponding to human gut metagenome with ENA study accession number: PRJEB37062 and ENA sample accession number: ERS12561769 for biotransformation under anaerobic condition. The drug concentrations were measured over 9 timepoints collected between 0 and 24 hours of incubation by liquid-chromatography-coupled mass spectrometry (LC–MS); settings: 2 µM
[20] = The drug is tested on Z-022 corresponding to mouse gut metagenome with ENA study accession number: PRJEB37062 and ENA sample accession number: ERS12561821 for biotransformation under anaerobic condition. The drug concentrations were measured over 9 timepoints collected between 0 and 24 hours of incubation by liquid-chromatography-coupled mass spectrometry (LC–MS); settings: 2 µM
Also: call rule not given here.

Row | SMILES | Bacterial Biotransformation [1] | Bacterial Biotransformation [2] | Bacterial Biotransformation [3] | Bacterial Biotransformation [4] | Bacterial Biotransformation [5] | Bacterial Biotransformation [6] | Bacterial Biotransformation [7] | Bacterial Biotransformation [8] | Bacterial Biotransformation [9] | Bacterial Biotransformation [10] | Bacterial Biotransformation [11] | Bacterial Biotransformation [12] | Bacterial Biotransformation [13] | Bacterial Biotransformation [14] | Bacterial Biotransformation [15] | Bacterial Biotransformation [16] | Bacterial Biotransformation [17] | Bacterial Biotransformation [18] | Bacterial Biotransformation [19] | Bacterial Biotransformation [20]
1 | CN(CCOc1ccc(CC2SC(=O)NC2=O)cc1)c1ccccn1.O=C(O)/C=C\C(=O)O (stereo not given) [ROSIGLITAZONE MALEATE] | Compound metabolized | Compound metabolized | Compound metabolized | Compound NOT metabolized | Compound metabolized | Compound metabolized | Compound NOT metabolized | Compound NOT metabolized | Compound NOT metabolized | Compound NOT metabolized | Compound NOT metabolized | Compound metabolized | Compound metabolized | Compound NOT metabolized | Compound metabolized | Compound NOT metabolized | Compound NOT metabolized | Compound NOT metabolized | Compound metabolized | Compound NOT metabolized
2 | C#C[C@]1(OC(C)=O)CC[C@H]2[C@@H]3CCC4=C/C(=N/O)CC[C@@H]4[C@H]3CC[C@@]21CC [NORGESTIMATE] | Compound metabolized | Compound metabolized | Compound metabolized | Compound NOT metabolized | Compound NOT metabolized | Compound metabolized | Compound NOT metabolized | Compound metabolized | Compound metabolized | Compound metabolized | Compound metabolized | Compound metabolized | Compound metabolized | Compound NOT metabolized | Compound metabolized | Compound NOT metabolized | Compound NOT metabolized | Compound metabolized | Compound metabolized | Compound NOT metabolized
3 | CCS(=O)(=O)CCn1c([N+](=O)[O-])cnc1C [TINIDAZOLE] | Compound metabolized | Compound metabolized | Compound metabolized | Compound metabolized | Compound metabolized | Compound metabolized | Compound metabolized | Compound metabolized | Compound metabolized | Compound metabolized | Compound metabolized | Compound metabolized | Compound metabolized | Compound metabolized | Compound metabolized | Compound metabolized | Compound metabolized | Compound metabolized | Compound metabolized | Compound metabolized
4 | CC(C)c1c(CN(C)C(C)Cc2ccccc2)n(C)n(-c2ccccc2)c1=O (stereo not given) [FAMPROFAZONE] | Compound metabolized | Compound metabolized | Compound metabolized | Compound metabolized | Compound metabolized | Compound metabolized | Compound metabolized | Compound metabolized | Compound metabolized | Compound metabolized | Compound metabolized | Compound metabolized | Compound metabolized | Compound metabolized | Compound metabolized | Compound NOT metabolized | Compound metabolized | Compound metabolized | Compound metabolized | Compound metabolized
5 | COc1ccc(CN2CCNCC2)c(OC)c1OC.Cl.Cl [TRIMETAZIDINE DIHYDROCHLORIDE] | Compound NOT metabolized | Compound NOT metabolized | Compound NOT metabolized | Compound NOT metabolized | Compound NOT metabolized | Compound NOT metabolized | Compound NOT metabolized | Compound NOT metabolized | Compound NOT metabolized | Compound NOT metabolized | Compound NOT metabolized | Compound NOT metabolized | Compound NOT metabolized | Compound NOT metabolized | Compound NOT metabolized | Compound NOT metabolized | Compound NOT metabolized | Compound NOT metabolized | Compound NOT metabolized | Compound NOT metabolized
